# Experimental data published in US8993604B2, “Treatment and prevention of dengue virus infections” (Siga Technologies, Inc., priority 2009, dated 2015).
# Read-outs that look alike come from different tables or passages of the source.
# Assays:
# dengue [1] = settings: cited from earlier work
# dengue [2] = settings: mouse model; cited from earlier work
# [3] = system: Dengue-2 (Strain New Guinea C); test: Viral yield assay in Vero cells; type: cell-based; settings: Dengue virus, read-out: Activity (anti-dengue 2 viral activity, EC50 class)
# Protocol: Compounds that were active in the primary screen were tested for activity in viral yield assays. […] Vero cells in 12-well plates were infected with dengue-2 virus at a multiplicity of infection (MOI) of 0.1, treated with compound (or DMSO as a control), incubated at 37° C., harvested 48 hours post infection and titered on Vero cells as described above. The EC50 was calculated through ExcelFit. Activities against other serotypes of dengue virus were determined in a similar way.
# [4] = Vero cells, MOI 0.1, harvested 48 hours post infection
SMILES,"EC50 [3, 4]",other results
NC(=O)c1ncn([C@@H]2O[C@H](CO)[C@@H](O)[C@H]2O)n1 [ribavirin],–,"adverse effects induced (dengue [1]; animal models of refs. 14, 16, model not specified): induced anemia and thrombocytosis; protection against dengue (dengue [1]; rhesus monkey model): did not show protection; protection against dengue (dengue [2]): did not show protection"
"O=C(Nc1ccc(O)c(-c2nc3ccccc3s2)c1)c1ccccc1F [Compound 57, N-(3-Benzothiazol-2-yl-4-hydroxy-phenyl)-2-fluoro-benzamide]",> 25 µM,–
"O=C(Nc1ccccc1-c1nc2ccccc2s1)c1ccccc1Br [Compound 116, N-(2-Benzothiazol-2-yl-phenyl)-2-bromo-benzamide]",> 25 µM,–
"Cc1cc(C(=O)Nc2ccc(-c3nc4ccccc4s3)cc2)ccc1[N+](=O)[O-] [Compound 85, N-(4-Benzothiazol-2-yl-phenyl)-3-methyl-4-nitro-benzamide]",> 25 µM,–
"Cc1c(C(=O)Nc2ccccc2-c2nc3ccccc3s2)cccc1[N+](=O)[O-] [Compound 114, N-(2-Benzothiazol-2-yl-phenyl)-2-methyl-3-nitro-benzamide]",> 25 µM,–
"O=C(Nc1ccc(O)c(-c2nc3ccccc3s2)c1)c1ccccc1 [Compound 56, N-(3-Benzothiazol-2-yl-4-hydroxy-phenyl)-benzamide]",> 25 µM,–
"COc1cc(C(=O)Nc2cc(-c3nc4ccccc4s3)ccc2C)cc(OC)c1OC [Compound 51, N-(5-Benzothiazol-2-yl-2-methyl-phenyl)-3,4,5-trimethoxy-benzamide]",> 25 µM,–
"O=C(Nc1cc(-c2nc3ccccc3s2)ccc1Cl)c1ccccc1[N+](=O)[O-] [Compound 67, N-(5-Benzothiazol-2-yl-2-chloro-phenyl)-2-nitro-benzamide]",> 25 µM,–
"Cc1ccc2sc(-c3ccc(NC(=O)c4ccc(Cl)cc4)cc3)nc2c1 [Compound 42, 4-Chloro-N-[4-(5-methyl-benzothiazol-2-yl)-phenyl]-benzamide]",> 25 µM,–
"CCCCOc1cccc(C(=O)Nc2ccccc2-c2nc3ccccc3s2)c1 [Compound 106, N-(2-Benzothiazol-2-yl-phenyl)-3-butoxy-benzamide]",> 25 µM,–
"COc1ccc(-c2nc3ccccc3s2)cc1NC(=O)c1ccc([N+](=O)[O-])cc1Cl [Compound 15, N-(5-Benzothiazol-2-yl-2-methoxy-phenyl)-2-chloro-4-nitro-benzamide]",1 to 10 µM,–
"COc1c(C)cccc1C(=O)Nc1ccccc1-c1nc2ccccc2s1 [Compound 16, N-(2-Benzothiazol-2-yl-phenyl)-2-methoxy-3-methyl-benzamide]",1 to 10 µM,–
"CCOc1ccc(C(=O)Nc2cccc(-c3nc4ccccc4s3)c2C)cc1[N+](=O)O [Compound 25, N-(3-Benzothiazol-2-yl-2-methyl-phenyl)-4-ethoxy-3-nitro-benzamide]",10 to 25 µM,–
"Cc1cc(C(=O)Nc2ccccc2-c2nc3ccccc3s2)ccc1[N+](=O)[O-] [Compound 115, N-(2-Benzothiazol-2-yl-phenyl)-3-methyl-4-nitro-benzamide]",> 25 µM,–
"Cc1c(C(=O)Nc2ccc(-c3nc4ccccc4s3)c(O)c2)cccc1[N+](=O)[O-] [Compound 78, N-(4-Benzothiazol-2-yl-3-hydroxy-phenyl)-2-methyl-3-nitro-benzamide]",> 25 µM,–
"COc1ccc(C(=O)Nc2ccc(-c3nc4ccccc4s3)c(Cl)c2)cc1OC [Compound 5, N-(4-Benzothiazol-2-yl-3-chloro-phenyl)-3,4-dimethoxy-benzamide]",< 1 µM,–
"Cc1ccc(C(=O)Nc2cccc(-c3nc4ccccc4s3)c2)c(Cl)c1 [Compound 33, N-(3-Benzothiazol-2-yl-phenyl)-2-chloro-4-methyl-benzamide]",10 to 25 µM,–
"Cc1ccc(C(=O)Nc2ccccc2-c2nc3ccccc3s2)cc1C [Compound 99, N-(2-Benzothiazol-2-yl-phenyl)-3,4-dimethyl-benzamide]",> 25 µM,–
"O=C(Nc1ccc(-c2nc3ccccc3s2)cc1)c1c(F)cccc1F [Compound 79, N-(4-Benzothiazol-2-yl-phenyl)-2,6-difluoro-benzamide]",> 25 µM,–
"O=C(Nc1ccc(O)c(-c2nc3ccccc3s2)c1)c1cccc(F)c1 [Compound 62, N-(3-Benzothiazol-2-yl-hydroxy-phenyl)-3-fluoro-benzamide]",> 25 µM,–
"CCC(C)Oc1ccc(C(=O)Nc2ccccc2-c2nc3ccccc3s2)cc1 (stereo not drawn) [Compound 101, N-(2-Benzothiazol-2-yl-phenyl)-4-sec-butoxy-benzamide]",> 25 µM,–
"COc1cc(C(=O)Nc2cc(-c3nc4ccccc4s3)ccc2Cl)cc(OC)c1OC [Compound 70, N-(5-Benzothiazol-2-yl-2-chloro-phenyl)-3,4,5-trimethoxy-benzamide]",> 25 µM,–

SMILES,"EC50 [3, 4]",other results
"O=C(Nc1ccc(O)c(-c2nc3ccccc3s2)c1)c1ccc(F)cc1 [Compound 61, N-(3-Benzothiazol-2-yl-4-hydroxy-phenyl)-4-fluoro-benzamide]",> 25 µM,–
"CC(=O)Oc1cccc(C(=O)Nc2ccc(-c3nc4ccccc4s3)cc2)c1 [Compound 30, Acetic acid 3-(4-benzothiazol-2-yl-phenylcarbamoyl)-phenyl ester]",10 to 25 µM,–
"Cc1ccc(C(=O)O)c(C(=O)Nc2ccc(-c3nc4ccc(C)cc4s3)cc2)c1 [Compound 8, 4-Methyl-N-[4-(6-methyl-benzothiazol-2-yl)-phenyl]-phthalamic acid]",< 1 µM,–
"COc1ccccc1C(=O)Nc1ccccc1-c1nc2ccccc2s1 [Compound 112, N-(2-Benzothiazol-2-yl-phenyl)-2-methoxy-benzamide]",> 25 µM,–
"O=C(Nc1ccccc1-c1nc2ccccc2s1)c1ccc(-c2ccccc2)cc1 [Compound 105, Biphenyl-4-carboxylic acid (2-benzothiazol-2-yl-phenyl)-amide]",> 25 µM,–
"O=C(Nc1ccc(-c2nc3ccccc3s2)c(O)c1)c1ccccc1 [Compound 59, N-(4-Benzothiazol-2-yl-3-hydroxy-phenyl)-benzamide]",> 25 µM,–
"COc1ccc(C(=O)Nc2ccc(Cl)c(-c3nc4ccccc4s3)c2)cc1OC [Compound 32, N-(3-Benzothiazol-2-yl-4-chloro-phenyl)-3,4-dimethoxy-benzamide]",10 to 25 µM,–
"Cc1ccc2nc(-c3ccc(NC(=O)c4ccccc4C(=O)O)cc3)sc2c1 [Compound 126, N-[4-(6-Methyl-benzothiazol-2-yl)-phenyl]-phthalamic acid]",–,"EC50 ([3]; Vero, 48 h): > 25 µM"
"Cc1ccc2nc(-c3ccc(NC(=O)c4ccc(S(=O)(=O)N5CCc6ccccc65)cc4)cc3)sc2c1 [Compound 41, 4-(2,3-Dihydro-indole-1-sulfonyl)-N-[4-(6-methyl-benzothiazol-2-yl)-phenyl]-benzamide]",> 25 µM,–
"COc1ccc(C(=O)Nc2cccc(-c3nc4ccccc4s3)c2)cc1 [Compound 91, N-(3-Benzothiazol-2-yl-phenyl)-4-methoxy-benzamide]",> 25 µM,–
"COc1ccccc1C(=O)Nc1cccc(-c2nc3ccccc3s2)c1 [Compound 4, N-(3-Benzothiazol-2-yl-phenyl)-2-methoxy-benzamide]",< 1 µM,–
"Cc1ccccc1C(=O)Nc1ccc(-c2nc3ccccc3s2)cc1 [Compound 26, N-(4-Benzothiazol-2-yl-phenyl)-2-methyl-benzamide]",10 to 25 µM,–
"COc1c(Cl)cc(Cl)cc1C(=O)Nc1ccccc1-c1nc2ccccc2s1 [Compound 100, N-(2-Benzothiazol-2-yl-phenyl)-3,5-dichloro-2-methoxy-benzamide]",> 25 µM,–
"Cc1c(NC(=O)c2ccc([N+](=O)[O-])cc2)cccc1-c1nc2ccccc2s1 [Compound 65, N-(3-Benzothiazol-2-yl-2-methyl-phenyl)-4-nitro-benzamide]",> 25 µM,–
"O=C(Nc1ccccc1-c1nc2ccccc2s1)c1cccc(I)c1 [Compound 103, N-(2-Benzothiazol-2-yl-phenyl)-3-iodo-benzamide]",> 25 µM,–
"Cc1ccccc1C(=O)Nc1cccc(-c2nc3ccccc3s2)c1 [Compound 92, N-(3-Benzothiazol-2-yl-phenyl)-2-methyl-benzamide]",> 25 µM,–
"COc1ccc(C(=O)Nc2ccccc2-c2nc3ccccc3s2)cc1OC [Compound 14, N-(2-Benzothiazol-2-yl-phenyl)-3,4-dimethoxy-benzamide]",1 to 10 µM,–
"Cc1ccccc1C(=O)Nc1ccc(-c2nc3ccccc3s2)c(O)c1 [Compound 23, N-(4-Benzothiazol-2-yl-3-hydroxy-phenyl)-2-methyl-benzamide]",10 to 25 µM,–
"COc1cc(OC)cc(C(=O)Nc2ccc(Cl)c(-c3nc4ccccc4s3)c2)c1 [Compound 86, N-(3-Benzothiazol-2-yl-4-chloro-phenyl)-3,5-dimethoxy-benzamide]",> 25 µM,–
"COc1ccc(C(=O)Nc2ccccc2-c2nc3ccccc3s2)cc1[N+](=O)[O-] [Compound 113, N-(2-Benzothiazol-2-yl-phenyl)-4-methoxy-3-nitro-benzamide]",> 25 µM,–
"Cc1ccc(-c2nc3ccccc3s2)cc1NC(=O)c1cccc(I)c1 [Compound 43, N-(5-Benzothiazol-2-yl-2-methyl-phenyl)-3-iodo-benzamide]",> 25 µM,–
